Results reported in patent publication EP1879602B1, “USE OF CACAO POLYPHENOLS FOR CONTROLLING SKIN PIGMENTATION” (priority 2005, dated 2006).

Test system: synthèse de la mélanine
Assay: Intracellular melanin assay by spectrometry at 475 nm on reconstituted epidermis (Skinetic®) co-cultured with melanocytes
Assay type: cell-based, humaine
Details: positive control, concentration not given
Text: L'activité sur la pigmentation (effet dépigmentant et effet pigmentant) a été étudiée à travers • l'évaluation de l'activité de la tyrosinase • l'évaluation de la synthèse de la mélanine (étude qualitative de la mélanine intracellulaire par spectrométrie à 475 nm)
L'étude a été faite sur des épidermes reconstitués (Skinetic®). Des kératinocytes d'origine humaine sont cultivés dans un milieu défini (MCDB 153 modifié) et supplémentés. Les cellules sont cultivées pendant 10 jours à l'interface air/liquide, le milieu de culture étant changé tous les deux jours.
Les épidermes ainsi formés sont mis en co-culture avec des mélanocytes de phototypes II, IV et VI sur des filtres en polycarbonate. L'étude est réalisée entre le 11^ème et le 17^ème jour de la culture.
L'essai est conduit en triplicate après 3 jours de contact.
L'évaluation de la synthèse de la mélanine intracellulaire (étude qualitative) a été effectuée comme indiqué ci-dessus par spectrométrie à 475 nm après digestion des explants de peau humaine puis dissolution dans NaOH 1N et du diméthyl sulfoxyde pendant 30 minutes.

For `O=c1cc(CO)occ1O` [acide kojique], the “%” value (change vs negative control, 4320 min) was -42% and the “Absorbance (475 nm)” value (3 days contact, triplicate) was 0,107 ± 0,01.
